Values of other authors in US10709795B2, “Method for delivering pharmaceutical nanoparticles to cancer cells” (National Guard Health Affairs, priority 2017, dated 2020).
Read-outs that look alike come from different tables or passages of the source.

How the values were obtained:
[1] = not given; remark: listed apart in the source
[2] = Grades 1-4, N = 2448, 1st line of this name
[3] = Grades 1-4, N = 2448, 2nd line of this name

In the case of `N#Cc1ccc(C(c2ccc(C#N)cc2)n2cncn2)cc1` [Femara, Letrozole], the “Endometrial Hyperplasia/Cancer, %” value (Grades 1-4, 1st line of this name) is listed as 0.8%, the “Endometrial Hyperplasia/Cancer, %” value (Grades 1-4, 2nd line of this name) is listed as 0.3% and the “Alopecia, %” value (Grades 1-4, N = 2448) is listed as 3.4%. For the same compound, the “Angina, %” value (Grades 1-4, N = 2448) was 1.3%, the “Angine, %” value (Grades 1-4, N = 2448) was 1.1% and the “Anorexia, %” value (Grades 1-4, N = 2448) was 1.5%. The “Arthralgia/Arthritis, %” value (Grades 1-4, N = 2448) was 25.2%, the “Back pain, %” value (Grades 1-4, N = 2448) was 5.1% and the “Bone Pain, %” value (Grades 1-4, N = 2448) was 5.0%. The “Breast Pain, %” value (Grades 1-4, N = 2448) was 2.0%, the “Cataract, %” value (Grades 1-4, N = 2448) was 2.0% and the “Constipation, %” value (Grades 1-4, N = 2448) was 2.0%. For the same compound, the “Depression, %” value (Grades 1-4, N = 2448) was 4.9%, the “Dizziness/Light headedness, %” value (Grades 1-4, N = 2448) was 3.4% and the “Edema, %” value (Grades 1-4, N = 2448) was 6.7%. The “Endometrial proliferation Disorders, %” value (Grades 1-4, N = 2448) was 0.3%, the “Fatigue (Lethargy, Malaise, Asthenia), %” value (Grades 1-4, N = 2448) was 9.6% and the “Headache, %” value (Grades 1-4, N = 2448) was 4.3%. The “Hot Flashes/Flushes, %” value (Grades 1-4, N = 2448) was 33.5%, the “Hypercholesterolemia, %” value (Grades 1-4, N = 2448) was 52.3% and the “Myalgia, %” value (Grades 1-4, N = 2448) was 8.9%. For the same compound, the “Myocardial Ischemia, %” value (Grades 1-4, N = 2448) was 0.2%, the “Nausea, %” value (Grades 1-4, N = 2448) was 11.6% and the “Night Sweats, %” value (Grades 1-4, N = 2448) was 25.2%. For the same compound, the “Osteopenia, %” value (Grades 1-4, N = 2448) was 3.6%, the “Osteoporosis NOS, %” value (Grades 1-4, N = 2448) was 5.1% and the “Other Endometrial Disorders, %” value (Grades 1-4, N = 2448) was under 0.1%. For the same compound, the “Pain in extremity, %” value (Grades 1-4, N = 2448) was 4.2%, the “Pts with any adverse event, %” value (Grades 1-4, N = 2448) was 94.4% and the “Vaginal Bleeding, %” value (Grades 1-4, N = 2448) was 5.2%. The “Vaginal Irritation, %” value (Grades 1-4, N = 2448) was 4.5%, the “Vomiting, %” value (Grades 1-4, N = 2448) was 3.3% and the “Weight Decrease, %” value (Grades 1-4, N = 2448) was 5.7%. For the same compound, the “Weight Increase, %” value (Grades 1-4, N = 2448) was 13.8%, the “Bone Fractures, %” value [2] was 14.6% and the “Cerebrovascular Accident, %” value [2] was 2.1%. For the same compound, the “Myocardial Infarction, %” value [2] was 1.0%, the “Other Cardiovascular1, %” value [2] was 10.6% and the “Second Malignancies, %” value [2] was 2.2%. The “Thromboembolic Event, %” value [2] was 2.1%, the “Bone Fractures, %” value [3] was 10.1% and the “Cerebrovascular Accident, %” value [3] was 2.9%. The “Myocardial Infarction, %” value [3] was 1.5%, the “Other Cardiovascular1, %” value [3] was 12.7% and the “Second Malignancies, %” value [3] was 4.2%. The “Thromboembolic Event, %” value [3] was 2.9%, the “Anorexia, %” value (Grades 3-4, N = 2448) was under 0.1% and the “Arthralgia/Arthritis, %” value (Grades 3-4, N = 2448) was 3.5%. The “Back pain, %” value (Grades 3-4, N = 2448) was 0.3%, the “Bone Pain, %” value (Grades 3-4, N = 2448) was 0.2% and the “Breast Pain, %” value (Grades 3-4, N = 2448) was under 0.1%. The “Cataract, %” value (Grades 3-4, N = 2448) was 0.7%, the “Constipation, %” value (Grades 3-4, N = 2448) was 0.1% and the “Depression, %” value (Grades 3-4, N = 2448) was 0.7%. For the same compound, the “Dizziness/Light headedness, %” value (Grades 3-4, N = 2448) was under 0.1%, the “Edema, %” value (Grades 3-4, N = 2448) was 0.1% and the “Fatigue (Lethargy, Malaise, Asthenia), %” value (Grades 3-4, N = 2448) was 0.2%. The “Headache, %” value (Grades 3-4, N = 2448) was 0.4%, the “Hypercholesterolemia, %” value (Grades 3-4, N = 2448) was 0.4% and the “Myalgia, %” value (Grades 3-4, N = 2448) was 0.7%. For the same compound, the “Nausea, %” value (Grades 3-4, N = 2448) was 0.2%, the “Osteoporosis NOS, %” value (Grades 3-4, N = 2448) was 0.4% and the “Pain in extremity, %” value (Grades 3-4, N = 2448) was 0.1%. For the same compound, the “Pts with any adverse event, %” value (Grades 3-4, N = 2448) was 25.9%, the “Vaginal Bleeding, %” value (Grades 3-4, N = 2448) was under 0.1% and the “Vaginal Irritation, %” value (Grades 3-4, N = 2448) was under 0.1%. For the same compound, the “Vomiting, %” value (Grades 3-4, N = 2448) was 0.1%, the “Weight Decrease, %” value (Grades 3-4, N = 2448) was 0.3% and the “Weight Increase, %” value (Grades 3-4, N = 2448) was 1.1%. The “water solubility (in words)” value [1] was “water insoluble”.
